Results as given in PubChem BioAssay AID434951 (Broad Institute, 2010).
Activity calls are given as the source filed them.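 The calls were made as follows: active = a fitted half-maximal concentration EC50 for the rise in nuclear signal no higher than ten times the top dose tested; inconclusive = flat fit with activity between 30% and 70%, or unusable fit; inactive = EC50 beyond ten times the top dose.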

These molecules were tested against Hypoxia-inducible factor 1-alpha (Homo sapiens) (UniProt Q16665) (assay: activators of HIF1alpha nuclear accumulation, confirmation, imaging, fluorescence, U2OS GFP-HIF1alpha (AID 434951)). Conditions: U2OS GFP-HIF1alpha nuclear intensity, high-content imaging.
Hypoxia-inducible factor 1-alpha (Homo sapiens), sequence (Q16665 whole entry, looked up): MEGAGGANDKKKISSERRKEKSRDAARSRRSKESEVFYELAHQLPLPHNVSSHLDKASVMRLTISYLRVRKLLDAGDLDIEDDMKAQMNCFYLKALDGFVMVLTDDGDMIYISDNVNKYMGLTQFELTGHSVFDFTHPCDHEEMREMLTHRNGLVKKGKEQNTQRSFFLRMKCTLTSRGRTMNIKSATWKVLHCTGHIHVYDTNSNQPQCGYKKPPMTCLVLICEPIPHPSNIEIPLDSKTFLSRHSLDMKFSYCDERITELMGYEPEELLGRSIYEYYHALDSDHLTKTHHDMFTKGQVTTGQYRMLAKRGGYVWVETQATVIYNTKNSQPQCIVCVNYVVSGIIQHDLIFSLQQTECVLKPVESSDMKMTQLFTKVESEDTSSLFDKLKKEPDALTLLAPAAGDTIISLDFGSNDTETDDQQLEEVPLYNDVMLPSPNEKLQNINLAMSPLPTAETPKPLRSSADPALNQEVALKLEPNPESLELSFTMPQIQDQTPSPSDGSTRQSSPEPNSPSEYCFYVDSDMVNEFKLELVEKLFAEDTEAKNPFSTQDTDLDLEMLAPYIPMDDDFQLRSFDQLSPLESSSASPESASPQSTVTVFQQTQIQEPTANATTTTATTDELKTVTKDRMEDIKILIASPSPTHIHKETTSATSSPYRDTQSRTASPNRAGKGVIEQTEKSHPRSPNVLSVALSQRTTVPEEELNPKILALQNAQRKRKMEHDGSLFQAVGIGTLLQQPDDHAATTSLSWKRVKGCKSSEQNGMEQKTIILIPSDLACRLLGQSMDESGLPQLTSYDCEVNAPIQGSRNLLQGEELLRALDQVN

| Structure (SMILES) | EC50 |
| --- | --- |
| Cn1c(CO)nc2c3ccccc3ccc21 | > 35 µM (inactive) |
| COc1cccc(/C=N/Nc2ncnc3c2ncn3Cc2ccccc2)c1O | 5.97 µM |
| COc1ccc2nc(NC(=O)Nc3ccccc3OC)sc2c1 | > 35 µM (inactive) |
| CC1CCN(Cc2c(C(=O)N/N=C/c3cc(Cl)ccc3O)nnn2-c2nonc2N)CC1 | 13.9 µM |
| C=CCOc1ccc(/C=C2\SC(=Nc3cccnc3)NC2=O)cc1 | > 35 µM (inactive) |
| COc1ccc(N2CCN(c3ccc(N4C(=O)CC(C)C4=O)cc3[N+](=O)[O-])CC2)cc1 (stereo unspecified) | > 35 µM (inactive) |
| Cc1ccc(/C=N/NC(=O)c2c(-c3ccccc3)noc2C)c(O)c1 | 6.81 µM |
| CCC(=O)NC(c1ccc(Cl)cc1Cl)c1ccc2cccnc2c1O (stereo unspecified) | 6.22 µM |
| Oc1c(CN2CCOCC2)cc(COCc2ccccc2)c2cccnc12 | 6.71 µM |
| Cc1cc(C)nc(Sc2ncnc(N)c2[N+](=O)[O-])n1 | 20.6 µM |
| Cc1ccc(Nc2nc(CSc3nnc(-c4ccncc4)n3C)cs2)cc1 | > 35 µM (inactive) |
| Cc1ccc2c(c1)cc(C(=O)NCc1ccccc1)n2C | > 35 µM (inactive) |
| CSc1ccc(/C=N/Nc2ccc(Cl)c(C(=O)O)c2)cc1 | > 35 µM (inactive) |
| CCCNC(=O)c1cc2nc(-c3ccccc3)cc(C(F)(F)F)n2n1 | > 35 µM (inactive) |
| COc1ccc(-c2nnc(-c3cc4c(ccc5ccccc54)oc3=O)o2)cc1 | > 35 µM (inactive) |
| CCCNC(=S)N1CCCC(c2nc3ccccc3[nH]2)C1 (stereo unspecified) | > 35 µM (inactive) |
| O=C(NCCc1ccccc1)c1cc(-c2ccco2)on1 | 10.8 µM |
| S=C(Nc1ccc2cn[nH]c2c1)Nc1ccccc1Cl | > 35 µM (inactive) |
| COC(=O)Nc1nnc(Cc2ccc(OC)cc2)s1 | > 35 µM (inactive) |
| Cc1ccc(CNC(=O)NC2CCCCC2)cc1 | > 35 µM (inactive) |
| O=C(c1cccc(C(F)(F)F)c1)C1CCCN(C(=O)Cn2cncn2)C1 (stereo unspecified) | > 35 µM (inactive) |
| CCc1ccc(NC(=O)CSc2ccc(-c3ccccn3)nn2)cc1 | 10.5 µM |
| CC(C)=NOC(=O)c1c(C)noc1-c1snnc1C | > 35 µM (inactive) |
| CC(Oc1ccc2c3c(c(=O)oc2c1)CCCC3)C(=O)NCC(O)c1ccccc1 (stereo unspecified) | > 35 µM (inactive) |
| Oc1c(CN2CCN(c3ccc(F)cc3)CC2)cc(Cl)c2cccnc12 | 6.07 µM |
| Cc1ccc(-n2cc(CN3CCC(CO)(Cc4ccccc4)CC3)cn2)cc1 | > 35 µM (inactive) |

| Structure (SMILES) | EC50 |
| --- | --- |
| CCCCC(=O)NC(c1ccc(N(C)C)cc1)c1ccc2cccnc2c1O (stereo unspecified) | 3.09 µM |
| O=C(CSc1c[nH]c2ccccc12)NCc1ccc2c(c1)OCO2 | > 35 µM (inactive) |
| COC(=O)c1ccc(C(C(=O)NCc2ccccc2)N(Cc2ccco2)C(=O)c2cnccn2)cc1 (stereo unspecified) | > 35 µM (inactive) |
| CC1CCN(Cc2nnnn2CCCC(=O)NCCc2cnn(C)c2)CC1 | > 35 µM (inactive) |
| O=C(CCc1nnc(-c2ccccc2)o1)c1ccc(Cl)cc1 | > 35 µM (inactive) |
| N/C(=N\OC(=O)c1cccs1)c1ccc(Cl)cc1 | > 35 µM (inactive) |
| CCCC(=O)NC(c1ccccc1OC)c1ccc2cccnc2c1O (stereo unspecified) | 5.97 µM |
| O=C(Cn1c(Cc2ccccc2)nc2ccccc21)NCc1ccc2c(c1)OCO2 | > 35 µM (inactive) |
| O=[N+]([O-])c1cc(S(=O)(=O)c2ccc(O)c([N+](=O)[O-])c2)ccc1O | > 35 µM (inactive) |
| CCOc1ccc(CCNC(=O)COC(=O)Cn2nc(C)c([N+](=O)[O-])c2C)cc1OCC | > 35 µM (inactive) |
| O=C(CN(Cc1ccc(F)cc1)C(=O)CCC(=O)Nc1nccs1)NCC1CCCO1 (stereo unspecified) | > 35 µM (inactive) |
| O=C(O)c1cccc(-n2cccc2/C=C2/SC(=O)N(CC(=O)N3CCCC3)C2=O)c1 | > 35 µM (inactive) |
| CC(=O)Nc1ccc(S(=O)(=O)Nc2ccc(S(=O)(=O)Nc3nccs3)cc2)cc1 | > 35 µM (inactive) |
| CCOC(=O)c1ccc(S(=O)(=O)NNC(=O)COc2ccccc2C)cc1 | > 35 µM (inactive) |
| Cc1nc2ccccc2c(=O)n1/N=C/c1ccc2ccccc2c1O | 22.2 µM |
| COc1ccc(-c2nc(C#N)c(N3CCN(C(=O)c4ccco4)CC3)o2)cc1OC | > 35 µM (inactive) |
| COc1cc(C(=O)N2CCN(C(=O)Cc3ccccc3)CC2)cc(OC)c1OC | > 35 µM (inactive) |
| O=C(Cc1ccc(S(=O)(=O)N2CCOCC2)s1)Nc1ccc(S(=O)(=O)N2CCCCC2)cc1 | > 35 µM (inactive) |
| Cc1cccc(OCCn2cccc2/C=C2/C(=O)NC(=O)N(Cc3ccco3)C2=O)c1 | > 35 µM (inactive) |
| Cc1ccc(Nc2c3c(nc4ccccc24)CCC3)cc1 | > 35 µM (inactive) |
| CN(CC1CCCO1)S(=O)(=O)c1ccc(C(=O)Nc2nccs2)cc1 (stereo unspecified) | > 35 µM (inactive) |
| COc1ccc(C(=O)NCCCOC(=O)c2ccc(OC)cc2)cc1 | > 35 µM (inactive) |
| COC(=O)Nc1ccc(=O)n(Cc2c(Cl)cccc2Cl)c1 | > 35 µM (inactive) |
| CC1CN/C(=C\C(=O)c2ccc(Br)cc2)C(=O)N1 (stereo unspecified) | > 35 µM (inactive) |
| ONC=Nc1cccc2nonc12 | > 35 µM (inactive) |
